The Deep4Chem optical property database
Blank lines part the entries; values can stand above or below the compound they belong to.

Assay: solvent given as SMILES

SMILES: COc1cc2c(cc1OC)C1=C[C@H](c3ccccc3)C3(C(C#N)=C(C#N)N1CC2)c1ccccc1-c1ccccc13
absorption maximum (in ClCCl): 310 nm

SMILES: CN(C)c1ccccc1
absorption maximum (in C1CCCCC1): 293.94 nm

SMILES: CCOC(=O)c1sc(SC)c2c(=O)[nH]nnc12
absorption maximum (in C1CCOC1): 380.5 nm | absorption maximum (in CC#N): 381 nm | absorption maximum (in CCO): 385 nm | absorption maximum (in CN(C)C=O): 389 nm | absorption maximum (in CO): 384.5 nm | absorption maximum (in CS(C)=O): 387.5 nm

SMILES: C1=CC2=CC=CC3C=c4c(cc5cccc6cccc4c65)C(=C1)C23 (stereo not given)
absorption maximum (in ClCCl): 543 nm

SMILES: CC1=C(c2ccccc2)C(C)=[N+]2C1=C(c1c(-c3ccccn3)nc3ccccn13)c1c(C)c(-c3ccccc3)c(C)n1[B-]2(F)F
absorption maximum (in ClCCl): 548 nm

SMILES: CC1(C)C(/C=C/C2=C(Oc3ccc(CCN=C=S)cc3I)C(=C/C=C3/N(CCCS(=O)(=O)[O-])c4ccccc4C3(C)C)/CCC2)=[N+](CCCS(=O)(=O)[O-])c2ccccc21
absorption maximum (in CO): 766 nm

SMILES: COc1ccc(-c2c3nc(cc4ccc([nH]4)c(-c4ccc(OC)c(OCC(=O)O)c4)c4nc(cc5ccc2[nH]5)C=C4)C=C3)cc1OCC(=O)O
absorption maximum (in CS(C)=O): 633 nm

SMILES: COc1cccc(C2=c3c(c4ccc(C(C)(C)C)cc4c4cc(C(C)(C)C)ccc34)=[N+]3C2=C(c2ccccc2)c2c(-c4cccc(OC)c4)c4c5ccc(C(C)(C)C)cc5c5cc(C(C)(C)C)ccc5c4n2[B-]3(F)F)c1
absorption maximum (in C1CCCCC1): 680 nm | absorption maximum (in C1CCOC1): 677 nm | absorption maximum (in CC#N): 670 nm | absorption maximum (in Cc1ccccc1): 682 nm | absorption maximum (in ClCCl): 677 nm

SMILES: COc1ccccc1C1=C2C(C)=CC(C)=[N+]2[B-](F)(F)n2c(C)cc(C)c21
absorption maximum (in C1CCOC1): 503 nm | absorption maximum (in CC#N): 499 nm | absorption maximum (in CC(=O)C(C)(C)C): 502 nm | absorption maximum (in CC(C)=O): 501 nm | absorption maximum (in CCCCCC): 504 nm | absorption maximum (in CCOC(C)=O): 502 nm | absorption maximum (in CO): 500 nm

SMILES: COc1ccc(-c2ccc3c(c2)c2cc(-c4ccc(OC)cc4)ccc2n3-c2ccc(C(=O)c3ccc4sc5ccccc5c4c3)cc2)cc1
absorption maximum (in Cc1ccccc1): 366 nm

SMILES: c1ccc(C2(c3ccccc3)c3ccccc3N(c3ccc(-c4nc([C@]56CC7CC(C[C@@H](C7)C5)C6)nc([C@]56C[C@H]7C[C@@H](C[C@H](C7)C5)C6)n4)cc3)c3ccccc32)cc1
absorption maximum (in Cc1ccccc1): 367.02 nm

SMILES: CC[N+]1(CC)CN2C(=N1)C(C(=O)O)=Cc1cc(C)c(C)cc12
absorption maximum (in O): 378 nm

SMILES: O=c1cc(-c2nc3ccccn3c2NC2CCCCC2)occ1OCc1ccccc1
absorption maximum (in ClCCl): 357 nm

SMILES: C/C(=N\Nc1ccc(C#N)cc1)c1ccccn1
absorption maximum (in CC#N): 342 nm | absorption maximum (in CCCCCC): 347 nm | absorption maximum (in CO): 364 nm | absorption maximum (in CS(C)=O): 351 nm | absorption maximum (in ClC(Cl)Cl): 343 nm

SMILES: N#CC(C#N)=Cc1ccc2c(c1)c1ccccc1n2-c1cc2ccccc2c2ccccc12
absorption maximum (in CC#N): 395 nm | absorption maximum (in CCCCC): 393 nm | absorption maximum (in Cc1ccccc1): 402 nm | absorption maximum (in ClCCl): 406 nm

SMILES: CC(C)(C)c1ccc(N(c2ccc(C(C)(C)C)cc2)c2ccc3c(N(c4ccc(C(C)(C)C)cc4)c4ccc(C(C)(C)C)cc4)cc4c5cc(N(c6ccc(C(C)(C)C)cc6)c6ccc(C(C)(C)C)cc6)ccc5c(N(c5ccc(C(C)(C)C)cc5)c5ccc(C(C)(C)C)cc5)cc4c3c2)cc1
absorption maximum (in ClCCl): 433 nm

SMILES: CCN(CC)c1ccc(-c2ccc(-c3nc(C#N)c4ccccc4n3)s2)cc1
absorption maximum (in CC#N): 397 nm | absorption maximum (in Cc1ccccc1): 402 nm

SMILES: N#C/C(=C\c1ccc(Cl)cc1)c1nc2ccccc2s1
absorption maximum (in C1CCCCC1): 350 nm | absorption maximum (in CO): 350 nm

SMILES: O=C1Nc2ccccc2/C1=C/C(=O)c1ccc(Cl)cc1
absorption maximum (in C1CCCCC1): 335 nm | absorption maximum (in C1COCCO1): 335 nm | absorption maximum (in CC#N): 332 nm | absorption maximum (in CC(C)(C)O): 339 nm | absorption maximum (in CC(C)O): 339 nm | absorption maximum (in CCCCCC): 334 nm | absorption maximum (in CCCCO): 339 nm | absorption maximum (in CCOC(C)=O): 335 nm | absorption maximum (in CN(C)C=O): 337 nm | absorption maximum (in CO): 340 nm | absorption maximum (in ClCCl): 338 nm | absorption maximum (in O): 341 nm

SMILES: Nc1ccc2c(c1)C(=O)c1ccc(N)cc1C2=O
absorption maximum (in CC#N): 438 nm | absorption maximum (in CC(C)O): 484 nm | absorption maximum (in CCO): 477 nm | absorption maximum (in CCOC(C)=O): 433.4 nm | absorption maximum (in CO): 474 nm

SMILES: c1ccc(-c2nc(-c3ccccc3)nc(-n3c4ccccc4c4cc(-n5c6ccccc6c6ccccc65)cc(-n5c6ccccc6c6ccccc65)c43)n2)cc1
absorption maximum (in C1CCOC1): 332.68 nm

SMILES: CN(C)c1ccc(/C=C/c2nc3c4ccccc4c4ccccc4c3[nH]2)cc1
absorption maximum (in C1CCOC1): 390 nm | absorption maximum (in C1COCCO1): 389 nm | absorption maximum (in CC1CCCCC1): 386 nm | absorption maximum (in CC#N): 389 nm | absorption maximum (in CCOC(C)=O): 387 nm | absorption maximum (in CCOCC): 386 nm | absorption maximum (in CN(C)C=O): 392 nm | absorption maximum (in COC(C)=O): 389 nm | absorption maximum (in CS(C)=O): 396 nm | absorption maximum (in Cc1ccccc1): 393 nm | absorption maximum (in ClC(Cl)Cl): 393 nm

SMILES: CCOC(=O)c1sc2nc(-c3ccccc3)c(C)c(C#N)c2c1N
absorption maximum (in C1COCCO1): 420 nm | absorption maximum (in CC#N): 412 nm | absorption maximum (in CCO): 423 nm | absorption maximum (in CCOC(C)=O): 419 nm | absorption maximum (in ClC(Cl)Cl): 416 nm | absorption maximum (in c1ccccc1): 418 nm

SMILES: COc1cccc(-n2c(-c3ccc(O)cc3)nc(C)c2C)c1
absorption maximum (in CC#N): 288 nm | absorption maximum (in CCO): 292 nm | absorption maximum (in CO): 287 nm

SMILES: COCCOCCOCCOCCOc1ccc(OCCOCCOCCOCCOC)c(C=O)c1
absorption maximum (in CC(C)(C)O): 350 nm | absorption maximum (in CC(C)CO): 350 nm | absorption maximum (in CC(C)O): 349 nm | absorption maximum (in CCCCO): 349 nm | absorption maximum (in CCCO): 349 nm | absorption maximum (in CCO): 349 nm | absorption maximum (in CN(C)C=O): 350 nm | absorption maximum (in CNC=O): 349 nm | absorption maximum (in CO): 349 nm | absorption maximum (in NC=O): 352 nm | absorption maximum (in O): 351 nm

SMILES: CCN1CCN(c2ccc(/N=N/c3ccc([N+](=O)[O-])cc3)cc2)CC1
absorption maximum (in CCOC(C)=O): 448 nm

SMILES: Cc1ccc(-c2ccc(/C=C/c3ccc(F)cc3)cn2)nc1
absorption maximum (in CC#N): 334 nm

SMILES: CC1(C)c2ccccc2N(c2ccc(-c3ncccn3)cc2)c2ccccc21
absorption maximum (in Cc1ccccc1): 359 nm

SMILES: COc1ccc(-c2cc(N3CCCCC3)c(C#N)c3c2-c2cccc4cccc-3c24)cc1
absorption maximum (in O): 430 nm

SMILES: COc1cc(OC)cc(C2=[O+][B-](F)(F)OC(c3ccccc3)=C2)c1
absorption maximum (in ClCCl): 369 nm

SMILES: CC(C)(C)c1ccc2c(c1)c1cc(C(C)(C)C)ccc1n2-c1ccc(C#Cc2ccc3c4ccc(C#Cc5ccc(C=O)cc5)cc4n(-c4ccc(C(F)(F)F)cc4)c3c2)cc1
absorption maximum (in ClCCl): 377 nm

SMILES: N#Cc1cc(C#N)c(-c2cc(-n3c4ccccc4c4ccccc43)cc(-n3c4ccccc4c4ccccc43)c2)cc1-c1ccc(N(c2ccccc2)c2ccccc2)cc1
absorption maximum (in Cc1ccccc1): 405 nm

SMILES: CC1=N/C(=C\c2cc(N(C)C)ccc2C#N)C(=O)N1C
absorption maximum (in C1CCOC1): 363 nm | absorption maximum (in CC#N): 361 nm | absorption maximum (in CCCCCC): 359 nm

SMILES: Cc1cc(C)c(N(c2ccccc2)c2ccc(S(=O)(=O)c3ccc(S(=O)(=O)c4ccc(N(c5ccccc5)c5c(C)cc(C)cc5C)cc4)cc3)cc2)c(C)c1
absorption maximum (in Cc1ccccc1): 351 nm

SMILES: CC(C)(C)C1CCC(=CS/C=C/c2ccc(/C=C/SC=C3CCC(C(C)(C)C)CC3)cc2)CC1 (stereo not given)
absorption maximum (in ClCCl): 351 nm

SMILES: COc1ccc(/C=C/C2=[O+][B-](F)(F)OC(/C=C/c3ccc(OC)c4ccccc34)=C2c2ccccc2)c2ccccc12
absorption maximum (in CC#N): 550 nm | absorption maximum (in CC(C)=O): 549 nm | absorption maximum (in CCOC(C)=O): 542 nm | absorption maximum (in CCOCC): 540 nm | absorption maximum (in ClC(Cl)(Cl)Cl): 542 nm | absorption maximum (in ClCCl): 556 nm

SMILES: CCCCOc1c(C=C2Sc3ccccc3N2C)c(=O)c1=O
absorption maximum (in CCO): 442 nm

Continued, values first:

absorption maximum (in ClCCl): 289 nm
SMILES: FC(F)(F)c1ccc(-c2ccc(-c3cc(-c4ccccn4)nc(-c4ccccn4)c3)cc2)cc1

absorption maximum (in CC#N): 643 nm | absorption maximum (in ClC(Cl)Cl): 650 nm
SMILES: F[B-]1(F)n2c(-c3ccccc3)cc(-c3ccccc3)c2N=C2C(c3ccccc3)=CC(c3ccccc3)=[N+]21

absorption maximum (in ClCCl): 421 nm
SMILES: Clc1ccccc1N1c2sc3ccccc3c2Sc2c1sc1ccccc21

absorption maximum (in C1CCCCC1): 360 nm
SMILES: C1=Cc2ccc3ccccc3c2NB1c1ccccc1

absorption maximum (in CC#N): 388 nm | absorption maximum (in CCO): 319 nm | absorption maximum (in ClCCl): 395 nm
SMILES: C[P+]1(c2ccccc2)C2=C(c3ccccc31)S(=O)(=O)c1ccccc12 (stereo not given)

absorption maximum (in ClCCl): 413 nm
SMILES: CN(C)c1ccc(C2=Cc3ccccc3P2(=O)c2ccccc2)cc1 (stereo not given)

absorption maximum (in C1COCCO1): 430 nm | absorption maximum (in CC#N): 433 nm | absorption maximum (in ClCCl): 436 nm
SMILES: Cc1ccc2nc(/C=C/c3ccc(N(C)C)cc3)c(-c3ccccc3)nc2c1

absorption maximum (in CC#N): 337 nm | absorption maximum (in CCCCCCCCCCCCCCCC): 325 nm | absorption maximum (in CO): 345 nm | absorption maximum (in ClC(Cl)Cl): 336 nm | absorption maximum (in c1ccccc1): 334 nm
SMILES: O=C1c2ccccc2NC(c2ccccc2)N1Cc1ccccc1 (stereo not given)

absorption maximum (in O): 396 nm
SMILES: c1ccc2c[n+]3ccccc3cc2c1

absorption maximum (in ClCCl): 400 nm
SMILES: CCCCCCN1C(=O)c2cccc3c(-c4ccc(-c5cc(-c6ccccc6)n(-c6ccccc6)n5)s4)ccc(c23)C1=O

absorption maximum (in C1CCOC1): 342 nm
SMILES: COC(=O)c1ccc(-c2ccc3c(c2)C(=O)c2cc(-c4ccc(C(=O)OC)cc4)ccc2-3)cc1

absorption maximum (in ClCCl): 402 nm
SMILES: C(=C\c1ncnc2ccccc12)/c1ccc(-c2ccc(N(c3ccccc3)c3ccccc3)cc2)cc1

absorption maximum (in CCO): 645 nm | absorption maximum (in CO): 642 nm | absorption maximum (in CS(C)=O): 653 nm | absorption maximum (in O): 639 nm
SMILES: CN1/C(=C/C=C(/C=C/c2sc3ccccc3[n+]2C)c2cccc(C(F)(F)F)c2)Sc2ccccc21

absorption maximum (in CC#N): 321 nm
SMILES: COc1ccc(/C=C/c2ccccc2)cc1OC

absorption maximum (in C1CCCCC1): 430 nm | absorption maximum (in CO): 450 nm
SMILES: CN(C)c1ccc(/C=C(\C#N)c2nc3ccccc3s2)cc1

absorption maximum (in C1CCOC1): 377 nm
SMILES: c1ccc2c(c1)-c1ccccc1C21c2ccccc2-c2c1c1c3ccccc3ccc1c1ccccc21

absorption maximum (in C1CCOC1): 390 nm
SMILES: N#Cc1c(N2CCCCC2)cc(-c2cccc3ccccc23)c2c1-c1ccccc1C2=O
